One may read the GI50 as the concentration that inhibits growth by half. Usually inhibition stands for the change of the read-out against control, counted positive when it falls. Usually IC50 stands for the concentration that gives 50% inhibition. A low value points to inhibition by little substance.

Assay [1] deals with CWR22R. Put plainly: Antiproliferative activity against AR-positive human 22Rv1 cells harboring ARE14 construct assessed as growth inhibition after 72 hrs by resazurin dye based fluorescence assay. In kind it is functional. The note with it: 22Rv1, 72 h. On the technique in general: Alamar Blue is a resazurin reagent that responds to reducing activity.
Assay [2] relates to LNCaP C4-2. Put plainly: Antiproliferative activity against AR-positive human C4-2 cells assessed as growth inhibition after 72 hrs by resazurin dye based fluorescence assay. In kind it is functional. As to conditions: LNCaP C4-2, 72 h.
In assay [3] the test system is VCaP. Put plainly: Antiproliferative activity against AR-positive human VCaP cells assessed as growth inhibition after 72 hrs by resazurin dye based fluorescence assay. In kind it is functional.
In assay [4] the test system is PC-3. Put plainly: Antiproliferative activity against AR-negative human PC3 cells assessed as growth inhibition after 72 hrs by resazurin dye based fluorescence assay. In kind it is functional. The note with it: PC-3, 72 h.
Assay [5] concerns the target T1, Androgen receptor (Homo sapiens) (UniProt P10275).
T1 sequence (whole entry): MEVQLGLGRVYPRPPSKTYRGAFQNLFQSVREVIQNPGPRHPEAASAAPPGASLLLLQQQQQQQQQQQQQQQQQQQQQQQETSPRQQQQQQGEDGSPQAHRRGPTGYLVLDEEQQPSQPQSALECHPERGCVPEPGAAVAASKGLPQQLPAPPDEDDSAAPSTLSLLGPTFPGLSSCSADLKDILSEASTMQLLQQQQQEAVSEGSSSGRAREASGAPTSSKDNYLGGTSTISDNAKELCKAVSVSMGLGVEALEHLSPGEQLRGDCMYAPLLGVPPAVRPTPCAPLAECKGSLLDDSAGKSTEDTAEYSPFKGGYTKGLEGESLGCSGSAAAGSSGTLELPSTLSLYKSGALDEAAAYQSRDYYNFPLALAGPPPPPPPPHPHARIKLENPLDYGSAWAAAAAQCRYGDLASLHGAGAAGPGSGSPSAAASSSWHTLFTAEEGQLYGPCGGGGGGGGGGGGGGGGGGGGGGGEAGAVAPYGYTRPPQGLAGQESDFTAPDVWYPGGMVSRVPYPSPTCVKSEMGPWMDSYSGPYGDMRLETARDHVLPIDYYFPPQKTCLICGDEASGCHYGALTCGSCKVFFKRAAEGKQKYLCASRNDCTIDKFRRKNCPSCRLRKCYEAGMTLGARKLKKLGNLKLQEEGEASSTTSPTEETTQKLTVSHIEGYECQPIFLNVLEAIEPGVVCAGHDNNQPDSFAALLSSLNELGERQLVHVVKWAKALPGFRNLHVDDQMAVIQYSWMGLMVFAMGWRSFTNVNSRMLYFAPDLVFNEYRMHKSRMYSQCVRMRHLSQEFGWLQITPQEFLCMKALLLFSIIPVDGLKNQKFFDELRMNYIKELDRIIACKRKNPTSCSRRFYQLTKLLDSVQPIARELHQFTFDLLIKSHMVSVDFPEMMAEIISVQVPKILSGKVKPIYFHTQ
Description: Inhibition of AR transcriptional activity in AR-positive human 22Rv1 cells harboring ARE14 construct assessed as downregulation of NKX3.1 protein expression at 5 uM after 24 hrs by immunoblot analysis. (In western blotting, separated proteins are transferred to a membrane and probed.)

Assay [6] deals with T1, Androgen receptor (Homo sapiens). Description: (§1) Inhibition of R1881 induced-AR transcriptional activity in AR-positive human 22Rv1 cells harboring ARE14 construct after 24 hrs by luciferase assay.
In a further assay the target is T2, Androgen receptor (Homo sapiens, UniProt P10275).
T2 sequence (P10275 whole entry): T1 sequence (whole entry)
Described as §1.

Assay [7] has as its target T1, Androgen receptor (Homo sapiens). Put plainly: Inhibition of R1881 induced-AR transcriptional activity in AR-positive human 22Rv1 cells harboring ARE14 construct assessed as suppression of NKX3.1 expression at 5 uM after 24 hrs by immunoblot analysis.
Assay [8] has the same target. Put plainly: Inhibition of R1881 induced-AR transcriptional activity in AR-positive human 22Rv1 cells harboring ARE14 construct assessed as suppression of PSA expression at 5 uM after 24 hrs by immunoblot analysis.
For assay [9], the system named is CWR22R. Put plainly: Inhibition of colony formation in AR-positive human 22Rv1 cells harboring ARE14 construct at 0.625 to 10 uM incubated for 10 days by crystal violet staining based analysis. In kind it is functional, cell-based.
The target of assay [10] is T1, Androgen receptor (Homo sapiens). Description: Inhibition of R1881-stimulated AR transcriptional activity in AR-positive human VCaP cells assessed as decrease in NKX3.1 protein expression at 20 uM after 48 hrs by immunoblot analysis. In kind it is cell-based.
Assay [11] has the same target. Put plainly: Inhibition of R1881-stimulated AR transcriptional activity in AR-positive human VCaP cells assessed as decrease in PSA protein expression at 20 uM after 48 hrs by immunoblot analysis. In kind it is cell-based.
In assay [12] the test system is VCaP. Put plainly: Downregulation of AR protein expression in R1881-stimulated AR-positive human VCaP cells at 20 uM after 48 hrs by immunoblot analysis. In kind it is functional, cell-based.
The subject of assay [13] is VCaP. Put plainly: Induction of apoptosis in R1881-stimulated AR-positive human VCaP cells assessed as PARP cleavage at 20 uM after 24 to 72 hrs by immunoblot analysis. In kind it is functional, cell-based.
Assay [14] relates to VCaP. Put plainly: Induction of apoptosis in R1881-stimulated AR-positive human VCaP cells assessed as caspase-3/7 activation at 20 uM using Ac-DEVD-AMC as substrate after 24 to 72 hrs by fluorescence based microplate reader analysis. In kind it is functional, cell-based.
Assay [15] deals with CWR22R. Put plainly: Induction of apoptosis in R1881-activated AR-positive human 22Rv1 cells harboring ARE14 construct assessed as cleaved PARP level at 5 uM after 24 hrs by immunoblot analysis. In kind it is functional, cell-based.
The subject of assay [16] is CWR22R. Put plainly: Antiproliferative activity against AR-positive human 22Rv1 cells harboring ARE14 construct assessed as growth inhibition after 24 hrs by resazurin dye based fluorescence assay. In kind it is functional. The note with it: 22Rv1, 24 h.
The next assay has as its system BJ. Description: Antiproliferative activity against human BJ cells assessed as growth inhibition after 24 hrs by resazurin dye based fluorescence assay. In kind it is functional.
Assay [17] addresses T1, Androgen receptor (Homo sapiens). Put plainly: Inhibition of R1881-stimulated AR transcriptional activity in AR-positive human VCaP cells assessed as NKX3.1 protein expression at 20 uM after 24 hrs by immunoblot analysis. In kind it is cell-based.
Assay [18] has as its system CWR22R. Put plainly: Effect on AR-V7 protein expression in AR-positive human 22Rv1 cells harboring ARE14 construct at 5 uM after 24 hrs by immunoblot analysis. In kind it is functional, cell-based.
In assay [19] the target is T1, Androgen receptor (Homo sapiens). Description: Inhibition of R1881-stimulated AR transcriptional activity in AR-positive human VCaP cells assessed as PSA protein expression at 20 uM after 24 hrs by immunoblot analysis. In kind it is cell-based.
For assay [20] the target is unchanged. As to conditions: at 10 µM.
Description: Inhibition of R1881 induced-AR transcriptional activity in AR-positive human 22Rv1 cells harboring ARE14 construct at 10 uM after 24 hrs by luciferase assay relative to control
For assay [21], the system named is CWR22R. Put plainly: Antiproliferative activity against AR-positive human 22Rv1 cells harboring ARE14 construct assessed as cell viability at 40 uM after 72 hrs by resazurin dye based fluorescence assay. In kind it is functional. As to conditions: 22Rv1, 72 h, read-out: Activity.
Assay [22] relates to LNCaP C4-2. Put plainly: Antiproliferative activity against AR-positive human C4-2 cells assessed as cell viability at 40 uM after 72 hrs by resazurin dye based fluorescence assay. As to conditions: LNCaP C4-2, 72 h, read-out: Activity. In kind it is functional.
Assay [23] deals with VCaP. Put plainly: Antiproliferative activity against AR-positive human VCaP cells assessed as cell viability at 40 uM after 72 hrs by resazurin dye based fluorescence assay. In kind it is functional. The note with it: read-out: Activity.
Assay [24] deals with PC-3. Description: Antiproliferative activity against AR-negative human PC3 cells assessed as cell viability at 40 uM after 72 hrs by resazurin dye based fluorescence assay. In kind it is functional. The note with it: PC-3, 72 h, read-out: Activity.

Activity calls are given as the source filed them. No cut-off for these calls is given here.

With `CC(=O)O[C@H]1CC[C@@]2(C)C(=CC[C@@H]3[C@@H]2CC[C@]2(C)c4c(C)nc5[nH]c6ccccc6c5c4C[C@@H]32)C1`, the GI50 with CWR22R [1] is 1400 nM; in the assay on LNCaP C4-2 [2], 1700 nM; with VCaP [3], 2000 nM; in the assay with PC-3 [4], above 100000 nM; in the assay with CWR22R [16] it was above 50000 nM; in the assay on BJ, above 50000 nM. Besides, the “NKX3.1 protein downregulation (active/not active)” value in assay [5] is “Active”. Besides, the inhibition entry in [6] was “Dose-dependent effect”; in assay [20], 29%. Also, the IC50 against Androgen receptor was 315 nM. Besides, the inhibition entry (in assay [7]; in assay [8]; in the assay on CWR22R [9]; in assay [10]; in assay [11]; with VCaP [12]) was “Active” throughout. For the same compound, the outcome in the assay with VCaP [13] and in the assay with VCaP [14] was Active. Moreover, the outcome with CWR22R [15] and in the assay with CWR22R [18] was inactive. Also, the inhibition entry in [17] and in [19] was “inactive” each time.

On to `CNC(=O)c1ccc(N2C(=S)N(c3ccc(C#N)c(C(F)(F)F)c3)C(=O)C2(C)C)cc1F` [ENZALUTAMIDE], for which the 50% growth inhibitory concentration (GI50) with CWR22R [1], with LNCaP C4-2 [2], in the assay on VCaP [3] and with PC-3 [4] was above 40000 nM in each case. In addition, the viability at 40 µM worked out at 84% with CWR22R [21], 91.5% in the assay with LNCaP C4-2 [22], 61.2% in the assay on VCaP [23] and 74% in the assay on PC-3 [24].

These data come from ChEMBL document CHEMBL4351016 (Eur J Med Chem, 2019).
